# Test results as given in patent US20220145406A1, “BIOMARKERS, AND USES IN TREATMENT OF VIRAL INFECTIONS, INFLAMMATIONS, OR CANCER” (ABIVAX, priority 2018, published 2022).
# Test system: miR-124
# Assay: miR-124 (RT-q)PCR in PBMCs, CD4+ and CD8+ T cells, macrophages
# Assay type: cell-based, human
# Conditions: PBMCs treated with antiretrovirals
# Description: Buffy coats from HIV-negative individuals were obtained from the local blood donation center in Centre de transfusion sanguine Montpellier. Human peripheral blood mononuclear cells (PBMCs) were isolated by Ficoll (Histopaque, Sigma) gradient centrifugation. CD4+ and CD8+ T cells were purified from PBMCs after Ficoll gradient centrifugation by Human CD4+ beads positive selection and CD8+ beads positive selection, respectively (Miltenyi). PBMCs, CD4+ and CD8+ T cells were grown at 37° C. and 5% CO2 to a density of 1.5×10^6 cells/ml in RPMI GlutaMAX medium (Life Technologies) supplemented with 10% fetal calf serum (FCS) (Thermo Fisher), 40 U/ml of IL2 (PeproTech) and 5 μg/mL of PHA (Roche) for 2 days. Three days later, cells were resuspended at 1.5×10^6 cells/ml in RPMI supplemented with 10% FCS and 40 U/ml IL2 and separated into two parts (infected and uninfected cells). Cells were infected with 80 ng of p24/106 cells of the YU-2 strain for 4 to 6 hours and then rinsed with PBS before medium renewal.
# Both infected and uninfected cells were then centrifuged and resuspended to a density of 1.5×10^6 cells/ml in medium supplemented with diluted drug solubilized in DMSO (Sigma) to a final 0.05% DMSO concentration or antiretroviral compounds according to the manufacturer's instructions. Cells were treated for 6 days with a medium renewal at day 3. HIV p24 titration was performed by ELISA from cell culture supernatants with Innotest kit (Ingen) according to the manufacturer's instructions.
# To generate monocyte-derived macrophages, monocytes were isolated using CD14+ positive microbeads (Miltenyi) and cultured in X-VIVO 10 medium (Lonza) supplemented with 10 mM HEPES, 1 mM sodium pyruvate, 1% non-essential amino acids, 10% FBS, 10 ng/ml GM-CSF and 100 ng/ml M-CSF for 7 days with medium renewal at day 3. After 7 days of differentiation, the cells were washed, plated in 6-well plates and incubated for 24 hours in medium without cytokine addition. Cells were treated for 6 days with a partial medium change at day 3.
# miRNAs were extracted from PBMCs, CD4+ or CD8+ T cells using the NucleoSpin miRNeasy kit (Macherey-Nagel) according to the manufacturer's instructions. miRNA reverse transcription (RT) was performed using the miScript II RT kit (Qiagen). […] The relative levels of miR-124 were calculated using the 2^−ΔΔCt method.
# Total RNA was extracted from macrophages using the Macherey-Nagel NucleoSpin miRNeasy kit. miRNA reverse transcription (RT) was performed on 2 μl of total RNA according to the Applied Biosystems TaqMan Advanced miRNA assays protocol for TaqMan qPCR. […] PCR runs were analyzed with Applied Biosystems ViiA 7 software.
row,Compound,miR-124 expression compared to untreated cells (DMSO)
1,Cc1cn([C@H]2C[C@H](N=[N+]=[N-])[C@@H](CO)O2)c(=O)[nH]c1=O [AZT],did not upregulate
2,CC(C)CN(C[C@@H](O)[C@H](Cc1ccccc1)NC(=O)O[C@H]1CO[C@H]2OCC[C@H]21)S(=O)(=O)c1ccc(N)cc1 [darunavir],did not upregulate
3,O=C1Nc2ccc(Cl)cc2[C@@](C#CC2CC2)(C(F)(F)F)O1 [efavirenz],did not upregulate
4,maraviroc,did not upregulate
